Type in all cases: cell-based
The target in assay [1] is GluN1/GluN2A glutamate receptors (human GRIN1/GRIN2A) expressed in HEK293 cells (Homo sapiens (Human), UniProt Q05586+Q12879). Description: Whole-cell patch clamp of mammalian cells (Ionworks Barracuda), positive allosteric modulation, GluN1/GluN2A. The conditions noted are these: for Emax: read-out: GluN2A PCA EMax (%). As for the experimental part:
(§1) NMDA potentiation in mammalian cells which expressed NMDA receptors was assessed using the automatic patch-clamp system can be used determine the NAM activity of compounds as described below. An whole cell patch-clamp system can be used determine the PAM activity of compounds as described below.
(§2) The measurements were performed using Ion Works Barracuda platform following this procedure:
(§3) Electrophysiological Procedures: • a) Intracellular solution (mM): 50 mM CsCl, 90 mM CsF, 2 mM MgCl2, 5 mM EGTA, 10 mM HEPES. Adjust to pH 7.2 with CsOH. • b) Extracellular solution, HB-PS (composition in mM): NaCl, 137; KCl, 1.0; CaCl2, 5; HEPES, 10; Glucose, 10; pH adjusted to 7.4 with NaOH (refrigerated until use). • c) Holding potential: −70 mV, potential during agonist/PAM application: −40 mV.
(§4) Recording Procedure: • a) Extracellular buffer will be loaded into the PPC plate wells (11 μL per well). Cell suspension will be pipetted into the wells (9 μL per well) of the PPC planar electrode. • b) Whole-cell recording configuration will be established via patch perforation with membrane currents recorded by on-board patch clamp amplifiers. • c) Two recordings (scans) will be performed. First, during pre-application of test article alone (duration of pre-application—5 min) and second, during test articles and agonist (EC20 L-glutamate and 30 μM glycine) co-application to detect positive modulatory effects of the test article.
(§5) Test Article Administration: The first pre-application will consist of the addition of 20 μL of 2× concentrated test article solution and, second, of 20 μL of 1× concentrated test article and agonist at 10 μL/s (2 second total application time).
(§6) Potentiating Effect of Positive Allosteric Modulators (PAM) on the Channel
(§7) The maximal amplitude of the evoked currents are measured and defined as Peak Current Amplitude (PCA).
(In general: The patch-clamp technique gives a direct electrical read-out from membranes.)

Assay [2] has as its target GluN2B glutamate receptors expressed in mammalian cells (Homo sapiens (Human), UniProt Q05586+Q13224). The assay is described as follows: Whole-cell patch clamp of mammalian cells (Ionworks Barracuda), positive allosteric modulation, GluN2B. The conditions noted are these: for Emax: read-out: GluN2B PCA EMax (%). On the procedure: as §1, §2, §3, §4, §5, §6, §7
Assay [3] has as its target glutamate-activated channels of the GRIN1/2A subtype stably transfected in HEK 293 cells (Homo sapiens (Human), UniProt Q05586+Q12879). Description: Automated patch-clamp system (QPatch HTX), percent potentiation at 1 μM. The conditions noted are these: HEK293, 1 μM test compound, 300 μM NMDA with 8 μM glycine, HEK 293 GRIN1/2A, read-out: GluN2A PCA % potentiation at 1 μM. The gist of the method:
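Tetracycline-induced HEK 293 cells stably expressing human GRIN1/2A were whole-cell recorded on QPatch HTX in Mg-free bath solution at pH 7.4. Compound at 1.0 μM (0.1% DMSO) was co-applied with submaximal 300 μM NMDA plus 8 μM glycine, and percent potentiation was recorded.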

Setting [4] is: peak current amplitude, co-application with EC20 L-glutamate and 30 μM glycine, HEK293.
Where [5] appears, read: peak current amplitude, co-application with EC20 L-glutamate and 30 μM glycine, read-out: GluN2B PCA EC50.
[6] abbreviates: peak current amplitude, co-application with EC20 L-glutamate and 30 μM glycine.
[7] abbreviates: peak current amplitude, co-application with EC20 L-glutamate and 30 μM glycine, HEK293, read-out: GluN2A PCA EC50.

EC50, Emax and activation data for 13 molecules are collected here from US11613556B2, “Oxysterols and methods of use thereof” (Sage Therapeutics, Inc., priority 2016, dated 2023).

Where two headings read alike, the source gives them in different places.

glutamate-activated channels of the GRIN1/2A subtype stably transfected in HEK 293 cells, sequence (Q12879 whole entry, looked up, other chains not shown): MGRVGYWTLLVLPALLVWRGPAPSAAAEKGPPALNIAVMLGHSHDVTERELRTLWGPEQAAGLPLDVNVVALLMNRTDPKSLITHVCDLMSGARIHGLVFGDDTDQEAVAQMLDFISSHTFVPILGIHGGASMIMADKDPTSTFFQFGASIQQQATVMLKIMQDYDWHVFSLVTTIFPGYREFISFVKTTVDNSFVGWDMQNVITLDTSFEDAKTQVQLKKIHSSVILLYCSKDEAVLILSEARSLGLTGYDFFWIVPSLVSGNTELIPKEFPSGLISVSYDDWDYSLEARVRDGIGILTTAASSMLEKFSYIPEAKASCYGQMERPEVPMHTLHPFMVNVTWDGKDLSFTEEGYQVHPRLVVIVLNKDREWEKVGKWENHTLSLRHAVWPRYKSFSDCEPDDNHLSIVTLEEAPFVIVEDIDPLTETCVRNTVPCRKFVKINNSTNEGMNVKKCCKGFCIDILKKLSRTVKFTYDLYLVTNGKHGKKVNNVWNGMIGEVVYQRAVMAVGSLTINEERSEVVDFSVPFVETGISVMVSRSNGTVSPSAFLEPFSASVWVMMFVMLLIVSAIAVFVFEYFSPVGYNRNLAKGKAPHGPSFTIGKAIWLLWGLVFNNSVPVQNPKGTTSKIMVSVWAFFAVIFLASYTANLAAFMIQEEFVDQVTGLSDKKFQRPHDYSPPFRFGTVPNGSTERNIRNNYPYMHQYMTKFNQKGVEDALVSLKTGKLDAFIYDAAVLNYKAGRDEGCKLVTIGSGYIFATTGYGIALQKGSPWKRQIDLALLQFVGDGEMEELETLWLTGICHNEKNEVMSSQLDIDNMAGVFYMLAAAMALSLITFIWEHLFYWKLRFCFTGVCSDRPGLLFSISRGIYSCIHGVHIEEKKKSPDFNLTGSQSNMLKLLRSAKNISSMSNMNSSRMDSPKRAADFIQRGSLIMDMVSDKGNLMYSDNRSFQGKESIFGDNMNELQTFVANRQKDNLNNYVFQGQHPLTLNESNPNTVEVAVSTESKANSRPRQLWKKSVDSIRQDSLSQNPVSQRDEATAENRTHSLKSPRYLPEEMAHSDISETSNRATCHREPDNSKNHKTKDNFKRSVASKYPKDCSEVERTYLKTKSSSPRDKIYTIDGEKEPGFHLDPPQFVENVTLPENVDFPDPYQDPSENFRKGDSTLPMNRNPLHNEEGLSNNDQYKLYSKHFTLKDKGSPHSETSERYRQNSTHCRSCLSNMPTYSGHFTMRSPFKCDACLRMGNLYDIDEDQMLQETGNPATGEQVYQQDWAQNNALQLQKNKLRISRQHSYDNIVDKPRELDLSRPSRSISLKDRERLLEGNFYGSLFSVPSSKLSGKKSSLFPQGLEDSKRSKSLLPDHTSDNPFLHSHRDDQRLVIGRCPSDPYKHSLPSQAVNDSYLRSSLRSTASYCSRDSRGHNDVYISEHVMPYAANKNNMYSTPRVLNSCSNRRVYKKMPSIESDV
GluN1/GluN2A glutamate receptors (human GRIN1/GRIN2A) expressed in HEK293 cells, sequence (Q12879 whole entry, looked up, other chains not shown): as above
GluN2B glutamate receptors expressed in mammalian cells, sequence (Q13224 27-1484, other chains not shown): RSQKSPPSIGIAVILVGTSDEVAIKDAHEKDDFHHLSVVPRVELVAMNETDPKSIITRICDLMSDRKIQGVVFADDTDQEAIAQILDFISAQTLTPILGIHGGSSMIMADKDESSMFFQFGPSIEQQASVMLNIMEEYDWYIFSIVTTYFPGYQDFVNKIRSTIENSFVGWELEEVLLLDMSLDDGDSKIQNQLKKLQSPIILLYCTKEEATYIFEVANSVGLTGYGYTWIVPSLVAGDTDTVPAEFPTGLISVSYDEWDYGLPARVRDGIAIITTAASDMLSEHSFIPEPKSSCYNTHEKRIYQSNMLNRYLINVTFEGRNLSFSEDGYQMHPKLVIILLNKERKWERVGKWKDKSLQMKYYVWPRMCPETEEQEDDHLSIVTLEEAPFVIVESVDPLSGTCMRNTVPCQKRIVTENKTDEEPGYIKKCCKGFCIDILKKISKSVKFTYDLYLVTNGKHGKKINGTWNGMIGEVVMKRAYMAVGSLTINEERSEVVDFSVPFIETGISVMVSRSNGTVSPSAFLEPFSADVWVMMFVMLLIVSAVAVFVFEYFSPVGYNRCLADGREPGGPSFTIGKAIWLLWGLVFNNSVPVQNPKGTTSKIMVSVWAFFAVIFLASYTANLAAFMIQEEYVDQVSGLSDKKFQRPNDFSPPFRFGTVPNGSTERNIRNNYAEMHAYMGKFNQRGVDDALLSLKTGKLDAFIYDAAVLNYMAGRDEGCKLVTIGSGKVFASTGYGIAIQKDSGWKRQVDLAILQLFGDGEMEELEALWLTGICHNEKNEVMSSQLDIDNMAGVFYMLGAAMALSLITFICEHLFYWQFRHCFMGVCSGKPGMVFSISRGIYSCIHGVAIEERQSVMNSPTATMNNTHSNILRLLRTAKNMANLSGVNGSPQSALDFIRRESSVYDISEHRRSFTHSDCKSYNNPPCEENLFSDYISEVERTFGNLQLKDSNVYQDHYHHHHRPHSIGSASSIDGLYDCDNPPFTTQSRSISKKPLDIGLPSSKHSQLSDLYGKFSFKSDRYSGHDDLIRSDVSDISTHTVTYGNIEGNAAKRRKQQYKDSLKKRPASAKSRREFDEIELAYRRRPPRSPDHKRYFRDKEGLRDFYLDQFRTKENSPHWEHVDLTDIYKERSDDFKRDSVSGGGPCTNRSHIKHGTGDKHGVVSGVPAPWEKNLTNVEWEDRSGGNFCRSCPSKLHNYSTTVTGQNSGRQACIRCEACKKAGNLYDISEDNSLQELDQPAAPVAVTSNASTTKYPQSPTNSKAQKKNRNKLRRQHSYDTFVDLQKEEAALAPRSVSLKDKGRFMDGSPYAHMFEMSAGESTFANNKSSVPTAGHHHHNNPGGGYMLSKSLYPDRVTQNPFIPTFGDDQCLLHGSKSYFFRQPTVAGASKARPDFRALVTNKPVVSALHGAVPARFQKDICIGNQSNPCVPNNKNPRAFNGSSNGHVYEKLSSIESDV

As for `CC[C@]1(O)CC[C@@]2(C)[C@@H](CC[C@@H]3[C@@H]2CC[C@]2(C)[C@@H]([C@H](C)[C@@H](O)Cc4ccccc4)CC[C@@H]32)C1` [Compound 32, (3S,5S,8R,9S,10S,13S,14S,17R)-3-ethyl-17-((2S,3S)-3-hydroxy-4-phenylbutan-2-yl)-10,13-dimethylhexadecahydro-1H-cyclopenta[a]phenanthren-3-ol], the EC50 in assay [1] and in assay [2] (setting [5]) was greater than 1000 nM in each case. Besides, the Emax in assay [1] (setting [4]) and in assay [2] (setting [6]) was less than 100% throughout. The activation at 1 µM in assay [3] is -10 to 10%.
`CC[C@]1(O)CC[C@@]2(C)[C@H](CC[C@@H]3[C@@H]2CC[C@]2(C)[C@@H]([C@H](C)[C@H](O)CC4CCCC4)CC[C@@H]32)C1` [Compound 67, (3S,5R,8R,9S,10S,13S,14S,17R)-17-((2S,3R)-4-cyclopentyl-3-hydroxybutan-2-yl)-3-ethyl-10,13-dimethylhexadecahydro-1H-cyclopenta[a]phenanthren-3-ol]: the EC50 in assay [1] and in assay [2] (setting [5]) was greater than 1000 nM in each case. Further, the Emax in assay [1] (setting [4]) and in assay [2] (setting [6]) was less than 100% each time. Besides, the activation at 1 µM in assay [3] is -10 to 10%.
In the case of `CC[C@]1(O)CC[C@@]2(C)[C@H](CC[C@@H]3[C@@H]2CC[C@]2(C)[C@@H]([C@H](C)[C@H](O)CCC(C)C)CC[C@@H]32)C1` [Compound 96, (3S,5R,8R,9S,10S,13S,14S,17R)-3-ethyl-17-((2S,3R)-3-hydroxy-6-methylheptan-2-yl)-10,13-dimethylhexadecahydro-1H-cyclopenta[a]phenanthren-3-ol], the figures for the EC50 in assay [1] (setting [7]) and in assay [2] were 100 to 1000 nM and greater than 1000 nM, respectively. Also, the Emax in assay [1] (setting [4]) and in assay [2] was less than 100% throughout. Further, the activation at 1 µM in assay [3] was -10 to 10%.
`CCC[C@H](O)[C@@H](C)[C@H]1CC[C@H]2[C@@H]3CC[C@@H]4C[C@](O)(CC)CC[C@]4(C)[C@H]3CC[C@]12C` [Compound 23, (3S,5R,8R,9S,10S,13S,14S,17R)-3-ethyl-17-((2S,3S)-3-hydroxyhexan-2-yl)-10,13-dimethylhexadecahydro-1H-cyclopenta[a]phenanthren-3-ol]: the EC50 in assay [1] and in assay [2] (setting [5]) was greater than 1000 nM each time. The Emax (in general, the greatest response seen or fitted, relative to the assay's reference) was less than 100% in assay [1] (setting [4]) and 100 to 500% in assay [2] (setting [6]). Further, in assay [3], the activation at 1 µM was -40 to -10%.
Turning to `CC[C@]1(O)CC[C@H]2[C@@H](CC[C@@H]3[C@@H]2CC[C@]2(C)[C@@H]([C@H](C)[C@H](O)CCC(C)C)CC[C@@H]32)C1` [Compound 40, (3S,5S,8R,9R,10S,13S,14S,17R)-3-ethyl-17-((2S,3R)-3-hydroxy-6-methylheptan-2-yl)-13-methylhexadecahydro-1H-cyclopenta[a]phenanthren-3-ol], the EC50 in assay [1] and in assay [2] (setting [5]) was greater than 1000 nM throughout. The Emax in assay [1] (setting [4]) was less than 100%; in assay [2] (setting [6]), 100 to 500%. The activation at 1 µM in assay [3] is -10 to 10%.
Turning to `CC[C@]1(O)CC[C@@]2(C)C(=CC[C@H]3[C@@H]4CC[C@H]([C@H](C)[C@@H](O)CC5CCCC5)[C@@]4(C)CC[C@@H]32)C1` [Compound 100, (3S,8S,9S,10R,13S,14S,17R)-17-((2S,3S)-4-cyclopentyl-3-hydroxybutan-2-yl)-3-ethyl-10,13-dimethyl-2,3,4,7,8,9,10,11,12,13,14,15,16,17-tetradecahydro-1H-cyclopenta[a]phenanthren-3-ol], the EC50 in assay [1] and in assay [2] (setting [5]) was greater than 1000 nM throughout. Moreover, the Emax in assay [1] (setting [4]) and in assay [2] (setting [6]) was less than 100% in each case. In addition, in assay [3], the activation at 1 µM was -40 to -10%.
On to `CC(C)CC[C@H](O)[C@@H](C)[C@H]1CC[C@H]2[C@@H]3CC[C@H]4C[C@@](C)(O)CC[C@]4(C)[C@H]3CC[C@]12C` [Compound 8, (3S,5S,8R,9S,10S,13S,14S,17R)-17-((2S,3S)-3-hydroxy-6-methylheptan-2-yl)-3,10,13-trimethylhexadecahydro-1H-cyclopenta[a]phenanthren-3-ol], for which the EC50 in assay [1] and in assay [2] (setting [5]) was greater than 1000 nM each time. For the same molecule, the Emax in assay [1] (setting [4]) and in assay [2] (setting [6]) was less than 100% in each case. In addition, the activation at 1 µM in assay [3] was less than -40%.
For the molecule `CC[C@]1(O)CC[C@@]2(C)[C@@H](CC[C@@H]3[C@@H]2CC[C@]2(C)[C@@H]([C@H](C)[C@H](O)CC4CCC(C)(C)CC4)CC[C@@H]32)C1` [Compound 20, (3S,5S,8R,9S,10S,13S,14S,17R)-17-((2S,3R)-4-(4,4-dimethylcyclohexyl)-3-hydroxybutan-2-yl)-3-ethyl-10,13-dimethylhexadecahydro-1H-cyclopenta[a]phenanthren-3-ol], the EC50 in assay [1] (setting [7]) and in assay [2] was greater than 1000 nM each time. Besides, the Emax in assay [1] (setting [4]) and in assay [2] was less than 100% in each case. Moreover, the activation at 1 µM in assay [3] is -40 to -10%.
On to `CCC[C@H](O)[C@@H](C)[C@H]1CC[C@H]2[C@@H]3CC[C@H]4C[C@](O)(CC)CC[C@]4(C)[C@H]3CC[C@]12C` [Compound 38, (3S,5S,8R,9S,10S,13S,14S,17R)-3-ethyl-17-((2S,3S)-3-hydroxyhexan-2-yl)-10,13-dimethylhexadecahydro-1H-cyclopenta[a]phenanthren-3-ol], for which the EC50 in assay [1] and in assay [2] (setting [5]) was greater than 1000 nM throughout. The Emax in assay [1] (setting [4]) and in assay [2] (setting [6]) was less than 100% in each case. In addition, in assay [3], the activation at 1 µM is -40 to -10%.
In the case of `CC[C@]1(O)CC[C@@]2(C)[C@H](CC[C@@H]3[C@@H]2CC[C@]2(C)[C@@H]([C@H](C)[C@@H](O)CC4CCC(C)(C)CC4)CC[C@@H]32)C1` [Compound 59, (3S,5R,8R,9S,10S,13S,14S,17R)-17-((2S,3S)-4-(4,4-dimethylcyclohexyl)-3-hydroxybutan-2-yl)-3-ethyl-10,13-dimethylhexadecahydro-1H-cyclopenta[a]phenanthren-3-ol], the EC50 in assay [1] (setting [7]) and in assay [2] was greater than 1000 nM throughout. For the same molecule, the Emax in assay [1] (setting [4]) and in assay [2] was less than 100% each time. The activation at 1 µM in assay [3] was less than -40%.
Turning to `C[C@@H]([C@H]1CC[C@H]2[C@@H]3CC[C@H]4C[C@](O)(C(F)(F)F)CC[C@]4(C)[C@H]3CC[C@]12C)[C@@H](C)O` [Compound 22, (3S,5S,8R,9S,10S,13S,14S,17R)-17-((2S,3R)-3-hydroxybutan-2-yl)-10,13-dimethyl-3-(trifluoromethyl)hexadecahydro-1H-cyclopenta[a]phenanthren-3-ol], in assay [3], the activation at 1 µM was -10 to 10%.
Still for that read-out and setting: under `CC[C@]1(O)CC[C@@]2(C)[C@@H](CC[C@@H]3[C@@H]2CC[C@]2(C)[C@@H]([C@H](C)[C@H](C)O)CC[C@@H]32)C1` [Compound 50, (3S,5S,8R,9S,10S,13S,14S,17R)-3-ethyl-17-((2S,3S)-3-hydroxybutan-2-yl)-10,13-dimethylhexadecahydro-1H-cyclopenta[a]phenanthren-3-ol] stands -40 to -10%; under `COC[C@]1(O)CC[C@@]2(C)[C@@H](CC[C@@H]3[C@@H]2CC[C@]2(C)[C@@H]([C@H](C)[C@H](O)CCC(C)C)CC[C@@H]32)C1` [Compound 2, (3S,5S,8R,9S,10S,13S,14S,17R)-17-((2S,3R)-3-hydroxy-6-methylheptan-2-yl)-3-(methoxymethyl)-10,13-dimethylhexadecahydro-1H-cyclopenta[a]phenanthren-3-ol], less than -40%.
